From patent US11548855B2, “Pyrazole amide compound and application thereof, and fungicide” (Shandong United Pesticide Industry Co. Ltd., priority 2017, dated 2023)

Tests used:
[1] = test system: soybean rust (Phakopsora pacchyrhizi Sydow); experiment: Greenhouse pot test, soybean rust; type: in vivo; conditions: Glycine max, 168 h, read-out: Control effect (%) Soybean rust
Procedure: Test method: each of the test compounds in Table 1 was dispensed to 5 wt % emulsifiable concentrate (hereinafter referred to as 5% EC). The greenhouse pot test was used in each experiment, and the effective concentrations of each compound were illustrated in Table 1.
Soybean rust: two-leaf stage potted soybean seedling with uniform growth was selected and made foliar spray treatment with 5% EC, the blank control sprayed with clean water was additionally arranged, three replicates were carried out. After 24 h, the leaves of the host plants were inoculated with sporangial suspensions of the fungi soybean rust (Phakopsora pacchyrhizi Sydow), the plants were stored in humidity chamber (temperature 20-25° C., relative humidity>95%) and then transferred to greenhouse (25±1° C.) 8-16 h after infection. After 7 days, the screening results were investigated according to the disease incidence condition of blank control.
The investigation method: “Guidelines for the field efficacy trials of pesticides” was adopted as the grading standard, and the control effect in a unit of % was calculated based on the disease index. Disease index=Σ(number of diseased leaves at each grade×relative grade value)×100/(total number of leaves×9); Control effect (%)=(disease index of control−disease index of treated)×100/disease index of control;
The compounds provided by the present disclosure and some control compounds were tested by the same methods in the Test example 1, except that the effective concentrations of the compounds in this Test example are shown in Table 2.

cucumber powdery mildew = experiment: Field trial, cucumber powdery mildew; type: in vivo; conditions: sprayed twice
Procedure: I. Cucumber Powdery Mildew Test Method:
Spray method: Stein and leaf spray (Applicator: Xinkangda lithium battery electric sprayer).
Test crop: cucumber (cultivars: Tianjiao7)
The test was carried out in Shenyang, the test field was loam with rich organic matters and normal management of fertilizer and water, and no other pesticide was applied during the test.
The arrangement of the test plot was random block permutation; the area of the test plot: 15 m^2; repeat times: 3 times; spray time and frequency: period between Sep. 28, 2018 and Oct. 11, 2018, twice. Spray dosage: each treatment was repeated 3 times, the total water consumption was 8 L. No other pesticide was applied during the test. […] 15-20 days after the second treatment, the incidence of disease spots in each plot was investigated.
The incidence of disease spots in each plot was investigated by randomly selecting 4 samples/plot and 2 plants/samples, all leaves/plant, the incidence of the whole plant was recorded by counting the number of disease leaves and determining the incidence grade.
Grading standard (in units of leaves):
Grade 0: no leaf-spot area;
Grade 1: the ratio of leaf-spot area to leaf area is less than 5%;
Grade 3: the ratio of leaf-spot area to leaf area is between 6-10%;
Grade 5: the ratio of leaf-spot area to leaf area is between 11-20%;
Grade 7: the ratio of leaf-spot area to leaf area is between 21-40%;
Grade 9: the ratio of leaf-spot area to leaf area is more than 40%;
According to the relevant content of the “Guidelines for the field efficacy trials of pesticides of the People's Republic of China (PRC)”, the disease index was calculated according to the grading standard, and the control effect in a unit of % was calculated based on the disease index, and the test data of significance analysis was performed by using DPS evaluation system (DMRT).

Cn1cc(C(=O)Nc2ccccc2Oc2ccc(C(F)(F)F)cc2C(F)(F)F)c(C(F)F)n1 [Compound 1]
90.0%: Control effect (%) Cucumber powdery mildew (cucumber powdery mildew; 100 mg/L)
96.5%: Control effect (%) Cucumber powdery mildew (cucumber powdery mildew; 200 mg/L)
100%: pest or weed control at 0.5 µg/mL ([1]; 0.5 mg/L) | pest or weed control at 1 µg/mL ([1]; 1 mg/L) | pest or weed control at 1.5625 µg/mL ([1]; 1.5625 mg/L) | pest or weed control at 2.5 µg/mL ([1]; 2.5 mg/L) | pest or weed control at 3.125 µg/mL ([1]; 3.1250 mg/L) | pest or weed control at 6.25 µg/mL ([1]; 6.25 mg/L) | pest or weed control at 10 µg/mL ([1]; 10 mg/L) | pest or weed control at 25 µg/mL ([1]; 25 mg/L) | pest or weed control at 100 µg/mL ([1]; 100 mg/L)
